Patent US8642660B2, “Method for altering the lifespan of eukaryotic organisms” (The University of Rochester, priority 2007, dated 2014)

Assays:
[1] = system: yeast cells; experiment: "775" DeaD assay, single-concentration screen for countering nicotinamide lifespan shortening; type: cell-based, Saccharomyces cerevisiae; parameters: key: compounds that exhibited >26% inhibition are defined as active; Compounds that exhibited <=26% inhibition are defined as inactive; details: compounds 10 uM, 1.5 mM nicotinamide, 48 hours, OD615
From the text: Having established the suitability of the DeaD assay as a proxy for microdissection, the DeaD assay was used to screen a 132,796 compound library for the ability of compounds in the library to counter the lifespan-shortening effect of nicotinamide.
Specifically, as described in the AID 775 assay results (synonymously, the “775” assay results) on the “PubChem” website at pubchem.ncbi.nlm.nih.gov/assay/assay.cgi?aid=775, the contents of which are herein incorporated in their entirety by reference, the percent inhibition of nicotinamide lifespan shortening, i.e. percent reversal of nicotinamide effect on lifespan, was calculated using the optical density in control wells with cells treated with 1.5 mM nicotinamide as full lifespan shortening effect of nicotinamide (0% inhibition of nicotinamide), and wells with cells grown in medium without nicotinamide as an indicator of 100% inhibition. The appropriate compounds in the PubChem compound library (about 132,000 compounds selected from the total library of about 10 million compounds) were screened at 10 uM in the presence of 1.5 mM nicotinamide. For further details, see, e.g., the following references: Jarolim, S., Millen, J., Heeren, G., Laun, P., Goldfarb, D. S. and M. Breitenbach. (2004). A novel assay for replicative lifespan in Saccharomyces cerevisiae. FEMS Yeast Res. 5, 169-177; Bitterman, K. J., Anderson, R. M., Cohen, H. Y., Latorre-Esteves, M., and D. A. Sinclair. (2002). Inhibition of silencing and accelerated aging by nicotinamide, a putative negative regulator of yeast Sir2 and human SIRT1. J. Biol. Chem. 277, 45099-45107; Tsuchiya, M., Dang, N., Kerr, E. O., Hu, D., Steffen, K. K., Oakes, J. A., Kennedy, B. K. and M. Kaeberlein (2006) Sirtuin-independent effects of nicotinamide on lifespan extension from calorie restriction in yeast. Aging Cell. 5, 505-514.
Assays were conducted as follow. Cells were streaked out on a YPGal agar plate and grown for 48 hours at 30° C. Four colonies were selected, 50 mL of YPGal medium in a flask was inoculated and grown at 30° C. with shaking O/N. OD600 was measured. The OD should be <0.7 for the cells to be in log phase. The cells were centrifuged, washed once and resuspended in CSMM-D restrictive growth medium. OD600 was measured again. The culture was diluted to an OD600 of 0.002 in CSMM-D restrictive medium. The culture was pre-incubated in a flask with shaking at 30° C. for 4 hours. At the end of the pre-incubation, OD600 was measured for reference. Nicotinamide (negative control), medium alone (positive control) and compounds in the presence of nicotinamide were plated with DMSO at 10× concentration (final concentrations: nicotinamide 1.5 mM, compounds 10 uM, DMSO 0.25%) in 384-well plates: 5 uL/well. The yeast was added to the plates: 45 uL/well. Plates were incubated at 30 C in a humidified chamber. After 48 hours incubation, plates were shaken for 30 seconds and OD615 was read in an EnVision (PerkinElmer) multilabel plate reader. For these assays, YPGal medium was prepared as 10 grams yeast extract, 20 grams peptone, 900 mL water, autoclave at 121° C. for 15 minutes, add 100 mL sterile 20% (w/v) galactose. CSMM-D (Complete Synthetic Minimal Medium-Dextrose) (restrictive) medium was prepared as 6.7 grams yeast nitrogen base without amino acids, 2.0 grams Drop-out mix complete (DOC) (USBiological Cat. no. D9515), 100 mL 20% (w/v) dextrose, water to 1.0 L, then filter sterilize.
An activity threshold of >26% was calculated as greater than three standard deviations from the median compound inhibition. […] Because of the inherent error in all high-throughput screens including the fallacy of over-interpreting single dose data, a tiered scoring system was adopted for this Example, in which compounds were scored on a scale of 0-40 based on activity, with a scaled activity threshold of 11. Using this tiered scoring system, the compounds were ranked, with 906 of these compounds defined as “active” using this tiered scoring system. […]

[2] = system: DeaD strain BB579; experiment: "809" DeaD assay, dose-response screen (EC50) in presence of nicotinamide; type: cell-based, Saccharomyces cerevisiae; parameters: key: An activity threshold of EC50<=10 uM was set and compounds that met this criterion are defined as active; Compounds that exhibited an EC50>10 uM are defined as inactive; details: compounds 0.078-10 uM, 1.5 mM nicotinamide, 48 hours
Protocol: As already discussed, Example 2 provides data using the “775” DeaD assay to determine compounds that counter the lifespan-reducing effects of 1.5 mM nicotinamide, with this Example identifying about 900 “active” compounds. Example 2 used only a single compound concentration of 10 uM; in the current Example, the top 500 of these “active” compounds were again screened using the DeaD assay, but now at 8 concentrations ranging from 0.078 to 10 uM, again in the presence of 1.5 mM nicotinamide, resulting in the data provided in Table 1. This more extensive data allowed for the determination of the half maximal effective concentration (EC50). See the “AID 809” assay (the “809” assay) results on the PubChem website at pubchem.ncbi.nlm.nih.gov/assay/assay.cgi?aid=809.
Thus, in this Example compounds were screened in an 8-point 2-fold dilution series ranging from 0.078 to 10 uM in the presence of 1.5 mM nicotinamide. The percent activation of lifespan, i.e. percent reversal of nicotinamide effect on lifespan, was calculated using the optical density in control wells with cells treated with 1.5 mM nicotinamide as full lifespan shortening effect of nicotinamide (0% activation), and wells with cells grown in medium without nicotinamide as an indicator of 100% activation. From the % activation values of the different compound concentrations, the half maximal effective concentration (EC50) was calculated using IDBS ActivityBase software and XLfit equation 205 for a four parameter logistic fit; the maximum and minimum values were fixed at 100% and 0%.
Assays were conducted as follow. Cells (DeaD strain BB579) were streaked out on a YPGal agar plate and grown for 48 hours at 30° C. Four colonies were selected, 50 mL of YPGal medium in a flask was inoculated and grown at 30 C with shaking O/N. OD600 was measured. The OD should be <0.7 for the cells to be in log phase. […] OD600 was measured again. […] At the end of the pre-incubation, OD600 was measured for reference. […] After 48 hours incubation, plates were shaken for 30 seconds and OD615 was read in an EnVision (PerkinElmer) multilabel plate reader. […]

[3] = system: yeast cells; experiment: Full DeaD assay lifespan timecourse (FIG. 3); type: cell-based, Saccharomyces cerevisiae; details: 2.5, 5.0, 10 uM, nonpermissive conditions
Protocol: FIG. 3 provides a plot showing DeaD assays for compound SID 855620 (nalidixic acid) in the presence and absence of nicotinamide. The nalidixic acid was incubated with growing cells under nonpermissive conditions at concentrations of 2.5, 5.0, and 10 uM (micromolar) in the presence and absence of 1.5 mM nicotinamide. Control experiments for growth in the presence and absence of nicotinamide without the drug are included. The last three entries showing the line labeling are all results obtained with 1.5 mM nicotinamide and, respectively, 2.5, 5 or 10 uM nalidixic acid. The data lines shown in this figure correspond to (topmost to bottommost as they appear at the extreme right side of the data lines): 2.5, 10, or 5 uM nalidixic acid (no nicotinamide); blank cells (labeled “no NIC”); 5 or 10 uM nalidixic acid plus 1.5 mM nicotinamide (in both cases); 10 uM nalidixic acid (no nicotinamide); and, blank cells with 1.5 mM nicotinamide (labeled “1.5 mM NIC”).
In order to validate the results of the “809” experiment of Example 3, timecourses for the effect of the top 70 compounds identified in Example 3 may be performed using the DeaD assay for, e.g., a 140 hour interval for each of these compounds. […]

[4] = system: yeast cells; experiment: Standard microdissection replicative lifespan assay (FIG. 4); type: cell-based, Saccharomyces cerevisiae
Protocol: FIG. 4 provides standard microdissection lifespans for nicotinamide in the presence of nalidixic acid and 5 mM nicotinamide. Three experiments that included three concentrations of nalidixic acid all increased mean lifespans (shown in parentheses) and maximum lifespans. In this Figure, “#864” refers to nalidixic acid, e.g., the second entry in the legend refers to 54 uM nalidixic acid, the third entry refers to 107 uM nalidixic acid, etc. The number presented in parentheses in the figure legend refers to the mean lifespan of the population in each experiment presented in this Figure, e.g., the control population (5 mM nicotinamide only) has a mean lifespan of 14.2 generations, etc.
In order to verify the data of Example 4 for nalidixic acid, microdissection experiments were performed using this compound to counter the effect of nicotinamide, with the results of these experiments shown in FIG. 4.

[5] = system: C. elegans; details: Pnc1 and SIR2-ortholog dependent; Van der Horst et al. 2007; cited from earlier work
[6] = system: DeaD strain; experiment: DeaD assay validation with nicotinamide (FIG. 2); type: cell-based, Saccharomyces cerevisiae; details: 0.5, 0.75, 1 mM NIC
Protocol: Panel A: Under growth in glucose (nonpermissive conditions) DeaD lifespans are reduced in a dose-dependent fashion by increasing concentrations of nicotinamide. […] The lines shown in panel A correspond to (top to bottom) 0, 0.5, 0.75, and 1 mM NIC. The 3 lines visible in panel B correspond to (topmost to bottommost), 0.5, 0.75, or 1 mM NIC; the 0 mM NIC line is not visible.
The DeaD assay was developed as a high throughput proxy for conventional microdissection assays used to determine yeast replicative ageing. In order to verify the ability of this assay to produce results corresponding to conventional microdissection assay results, the data of FIG. 1 were obtained using either the DeaD assay (panel A) or via microdissection (panel B).

[7] = 5 mM nicotinamide, three concentrations of nalidixic acid

| SMILES | activity in the 775 assay (percent inhibition of nicotinamide lifespan shortening) [1] | activity in the 809 assay (EC50) [2] | further results |
| --- | --- | --- | --- |
| CCCC(=O)C1C(=O)CC(CC(C)SCC)CC1=O (stereo not shown) [SID 14732512] | active | active | – |
| CCOC(=O)C1C(=O)C(C(C)=O)C(=O)CC1CC(C)SCC (stereo not shown) [SID 14724551] | active | active | – |
| CC1(C)CC(=O)C(C(=O)CCCCC(=O)C2C(=O)CC(C)(C)CC2=O)C(=O)C1 [SID 4245034] | inactive | – | – |
| COC(=O)CCCCC(=O)C1C(=O)CC(C)(C)C(C(=O)OC)C1=O (stereo not shown) [SID 7972920] | inactive | – | – |
| CCn1cc(C(=O)O)c(=O)c2ccc(C)nc21 [nalidixic acid] | – | – | DeaD lifespan ([3]; in the absence of nicotinamide): extends DeaD lifespan; DeaD lifespan ([3]; in the presence of 1.5 mM nicotinamide): extends DeaD lifespan; maximum lifespan [4, 7]: increased; mean lifespan [4, 7]: increased |
| NC(=O)c1cccnc1 [nicotinamide] | – | – | C. elegans lifespan [5]: reduce C. elegans lifespan; growth under permissive conditions ([6]; growth in galactose (permissive conditions)): without altering growth; DeaD lifespan ([6]; growth in glucose (nonpermissive conditions)): reduces the lifespan of the DeaD strain in a dose-dependent fashion; mean lifespan ([4]; control population, 5 mM nicotinamide only): 14.2 generations |
| CCOc1ccc(CC(=O)C2C(=O)CC(C)(C)CC2=O)cc1OCC [SID 14732962] | inactive | – | – |
| CC1(C)CC(=O)C(C(=O)Cc2ccccc2[N+](=O)[O-])C(=O)C1 [SID 17511642] | active | active | – |
| CCCC(=O)C1C(=O)CC(C)(C)C(c2cc(C)no2)C1=O (stereo not shown) [SID 7972147] | active | – | – |
| Cc1cc(C2C(=O)C(C(=O)c3ccc(Cl)cc3)C(=O)CC2(C)C)on1 (stereo not shown) [SID 842694] | inactive | – | – |
